Test results: ChEMBL document CHEMBL3758091, “Identification of N-(6-mercaptohexyl)-3-(4-pyridyl)-1H-pyrazole-5-carboxamide and its disulfide prodrug as potent histone deacetylase inhibitors with in vitro and in vivo anti-tumor efficacy” (Eur J Med Chem, 2016)

Tests used:
cells [1] = type: functional; details: Homo sapiens, HCT-116, 96 h
Description: Growth inhibition of human HCT116 cells after 96 hrs by MTT assay

MCF7 = experiment: cells; type: functional; details: Homo sapiens, MCF7, 96 h
Description: Growth inhibition of human MCF7 cells after 96 hrs by MTT assay

Histone deacetylase 1 [2] = target: T1, Histone deacetylase 1 (Homo sapiens, UniProt Q13547); experiment: Inhibition of recombinant human HDAC1 using Boc-Lys(Ac)-AMC as substrate preincubated for 15 mins followed by substrate addition measured after 60 mins by fluorescence-based assay
Histone deacetylase = experiment: Inhibition of HDAC in human HeLa cell nuclear extract using Boc-Lys(Ac)-AMC as substrate preincubated for 15 mins followed by substrate addition measured after 60 mins by fluorescence-based assay
[3] = target: T2, Protein deacetylase HDAC6 (Homo sapiens, UniProt Q9UBN7); experiment: Inhibition of recombinant human HDAC6 using Boc-Lys(Ac)-AMC as substrate preincubated for 15 mins followed by substrate addition measured after 60 mins by fluorescence-based assay
T2 sequence (Q9UBN7 whole entry): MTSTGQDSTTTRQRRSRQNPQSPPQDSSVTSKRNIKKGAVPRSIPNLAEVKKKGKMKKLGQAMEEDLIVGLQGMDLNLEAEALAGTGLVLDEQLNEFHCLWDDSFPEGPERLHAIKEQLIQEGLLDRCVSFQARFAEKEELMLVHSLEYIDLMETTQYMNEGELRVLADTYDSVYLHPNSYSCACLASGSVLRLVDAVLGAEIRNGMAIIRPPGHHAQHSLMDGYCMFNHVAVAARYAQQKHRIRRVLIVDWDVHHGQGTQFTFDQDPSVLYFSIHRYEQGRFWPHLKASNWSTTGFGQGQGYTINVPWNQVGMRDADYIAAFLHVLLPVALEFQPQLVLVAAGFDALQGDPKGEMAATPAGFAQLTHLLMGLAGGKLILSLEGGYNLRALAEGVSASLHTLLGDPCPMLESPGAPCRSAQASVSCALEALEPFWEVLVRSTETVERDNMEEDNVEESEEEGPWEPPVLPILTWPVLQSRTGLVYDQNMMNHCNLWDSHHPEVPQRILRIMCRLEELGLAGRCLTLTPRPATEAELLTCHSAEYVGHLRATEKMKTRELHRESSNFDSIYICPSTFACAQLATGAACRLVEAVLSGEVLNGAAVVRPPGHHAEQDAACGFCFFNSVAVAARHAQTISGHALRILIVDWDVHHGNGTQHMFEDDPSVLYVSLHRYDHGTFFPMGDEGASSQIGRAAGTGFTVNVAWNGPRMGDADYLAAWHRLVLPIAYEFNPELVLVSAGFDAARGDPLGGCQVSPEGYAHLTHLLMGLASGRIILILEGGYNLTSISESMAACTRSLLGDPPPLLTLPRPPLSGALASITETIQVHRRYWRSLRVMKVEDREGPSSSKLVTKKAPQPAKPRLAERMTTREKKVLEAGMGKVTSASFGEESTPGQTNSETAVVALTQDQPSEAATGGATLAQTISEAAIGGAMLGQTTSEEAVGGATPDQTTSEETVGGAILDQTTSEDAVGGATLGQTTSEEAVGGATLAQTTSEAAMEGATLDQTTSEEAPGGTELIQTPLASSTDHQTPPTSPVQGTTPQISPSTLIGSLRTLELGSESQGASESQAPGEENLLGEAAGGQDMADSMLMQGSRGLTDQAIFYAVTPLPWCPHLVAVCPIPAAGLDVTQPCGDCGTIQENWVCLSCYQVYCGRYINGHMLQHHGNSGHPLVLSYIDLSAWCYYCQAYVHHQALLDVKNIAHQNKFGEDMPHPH

cells [4] = type: functional; details: Homo sapiens, ASPC1, 96 h
Description: Growth inhibition of human Aspc-1 cells after 96 hrs by MTT assay

cells [5] = type: functional; details: Homo sapiens, PC-3, 96 h
Description: Growth inhibition of human PC3 cells after 96 hrs by MTT assay

HT-29 = experiment: Growth inhibition of human HT-29 cells after 96 hrs by MTT assay; type: functional; details: Homo sapiens, HT-29, 96 h
MDA-MB-231 = experiment: cells; type: functional; details: Homo sapiens, MDA-MB-231, 96 h
Description: Growth inhibition of human MDA-MB-231 cells after 96 hrs by MTT assay

[6] = Cytotoxicity against HEK293 cells assessed as growth inhibition after 96 hrs by MTT assay; details: human
A549 = experiment: cells; type: functional; details: Homo sapiens, A549, 96 h
Description: Growth inhibition of human A549 cells after 96 hrs by MTT assay

Histone deacetylase 4 = Histone deacetylase 4 (Homo sapiens, UniProt P56524); experiment: Inhibition of recombinant human HDAC4 using Boc-Lys(TFA)-AMC as substrate preincubated for 15 mins followed by substrate addition measured after 60 mins by fluorescence-based assay
Histone deacetylase 11 = target: T3, Histone deacetylase 11 (Homo sapiens, UniProt Q96DB2); experiment: Inhibition of recombinant human HDAC11 using Boc-Lys(TFA)-AMC as substrate preincubated for 15 mins followed by substrate addition measured after 60 mins by fluorescence-based assay
T3 sequence (Q96DB2 whole entry): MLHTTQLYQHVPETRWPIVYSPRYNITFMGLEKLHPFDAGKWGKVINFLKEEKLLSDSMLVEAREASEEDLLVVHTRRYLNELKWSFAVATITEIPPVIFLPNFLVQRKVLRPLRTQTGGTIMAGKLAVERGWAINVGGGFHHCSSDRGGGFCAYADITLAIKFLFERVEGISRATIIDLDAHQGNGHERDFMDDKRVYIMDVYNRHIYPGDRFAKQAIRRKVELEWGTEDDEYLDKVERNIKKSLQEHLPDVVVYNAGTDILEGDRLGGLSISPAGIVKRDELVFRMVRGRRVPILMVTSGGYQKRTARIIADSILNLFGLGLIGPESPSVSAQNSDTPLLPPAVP

Histone deacetylase 2 = Histone deacetylase 2 (Homo sapiens, UniProt Q92769); experiment: Inhibition of recombinant human HDAC2 using Boc-Lys(Ac)-AMC as substrate preincubated for 15 mins followed by substrate addition measured after 60 mins by fluorescence-based assay
Histone deacetylase 3 = Histone deacetylase 3 (Homo sapiens, UniProt O15379); experiment: Inhibition of recombinant human HDAC3 using Boc-Lys(Ac)-AMC as substrate preincubated for 15 mins followed by substrate addition measured after 60 mins by fluorescence-based assay
Histone deacetylase 8 = target: T4, Histone deacetylase 8 (Homo sapiens, UniProt Q9BY41); experiment: Inhibition of recombinant human HDAC8 using Boc-Lys(TFA)-AMC as substrate preincubated for 15 mins followed by substrate addition measured after 60 mins by fluorescence-based assay
T4 sequence (Q9BY41 whole entry): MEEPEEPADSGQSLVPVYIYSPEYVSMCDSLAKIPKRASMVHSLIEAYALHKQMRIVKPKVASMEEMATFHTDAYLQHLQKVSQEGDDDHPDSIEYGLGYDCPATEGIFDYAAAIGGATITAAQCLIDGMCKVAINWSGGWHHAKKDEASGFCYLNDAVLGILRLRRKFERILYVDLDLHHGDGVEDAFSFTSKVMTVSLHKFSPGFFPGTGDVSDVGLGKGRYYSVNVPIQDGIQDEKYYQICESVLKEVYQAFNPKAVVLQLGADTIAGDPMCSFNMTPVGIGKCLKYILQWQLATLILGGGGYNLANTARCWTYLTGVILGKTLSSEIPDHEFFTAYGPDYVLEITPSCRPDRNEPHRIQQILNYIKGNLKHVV

[7] = target: T5, Protein deacetylase HDAC6 (Homo sapiens) (UniProt Q9UBN7); experiment: Inhibition of HDAC6 in human HCT116 cells assessed as increase in acetylated tubulin level after 24 hrs by Western blot analysis; type: cell-based; details: HCT-116
T5 sequence (whole entry): T2 sequence (Q9UBN7 whole entry)

Histone deacetylase 1 [8] = target: T1, Histone deacetylase 1; experiment: Inhibition of HDAC1 in human HCT116 cells assessed as increase in acetylated histone H3 level after 24 hrs by Western blot analysis; type: cell-based; details: HCT-116

T1 sequence (Q13547 whole entry): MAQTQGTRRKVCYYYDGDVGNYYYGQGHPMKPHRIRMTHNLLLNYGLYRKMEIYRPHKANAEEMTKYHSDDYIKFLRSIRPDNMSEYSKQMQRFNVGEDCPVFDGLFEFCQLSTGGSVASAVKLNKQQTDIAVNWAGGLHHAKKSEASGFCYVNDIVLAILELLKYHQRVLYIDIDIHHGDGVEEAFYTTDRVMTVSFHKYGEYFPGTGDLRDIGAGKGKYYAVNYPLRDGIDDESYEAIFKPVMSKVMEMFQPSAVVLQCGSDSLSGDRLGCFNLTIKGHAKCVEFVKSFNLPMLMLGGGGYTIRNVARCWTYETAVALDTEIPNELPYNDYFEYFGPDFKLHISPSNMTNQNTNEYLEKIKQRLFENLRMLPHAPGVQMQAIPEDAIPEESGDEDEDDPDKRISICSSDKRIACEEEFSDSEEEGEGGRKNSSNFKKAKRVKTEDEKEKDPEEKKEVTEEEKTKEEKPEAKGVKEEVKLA
Chain of Histone deacetylase 2 (Q92769 whole entry): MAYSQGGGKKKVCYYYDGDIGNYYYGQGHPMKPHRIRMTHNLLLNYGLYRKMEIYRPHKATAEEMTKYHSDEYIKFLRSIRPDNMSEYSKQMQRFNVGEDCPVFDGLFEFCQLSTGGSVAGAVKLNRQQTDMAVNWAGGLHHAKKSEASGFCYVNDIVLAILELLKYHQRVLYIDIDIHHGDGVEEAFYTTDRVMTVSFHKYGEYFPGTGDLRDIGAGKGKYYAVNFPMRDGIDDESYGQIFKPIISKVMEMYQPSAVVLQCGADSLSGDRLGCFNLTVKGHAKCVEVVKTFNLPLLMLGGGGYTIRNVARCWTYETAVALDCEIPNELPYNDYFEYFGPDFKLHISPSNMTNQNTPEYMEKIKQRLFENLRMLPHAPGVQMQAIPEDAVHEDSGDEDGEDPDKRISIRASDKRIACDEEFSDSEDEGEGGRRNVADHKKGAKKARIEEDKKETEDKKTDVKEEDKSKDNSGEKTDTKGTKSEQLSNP
Chain of Histone deacetylase 4 (P56524 whole entry): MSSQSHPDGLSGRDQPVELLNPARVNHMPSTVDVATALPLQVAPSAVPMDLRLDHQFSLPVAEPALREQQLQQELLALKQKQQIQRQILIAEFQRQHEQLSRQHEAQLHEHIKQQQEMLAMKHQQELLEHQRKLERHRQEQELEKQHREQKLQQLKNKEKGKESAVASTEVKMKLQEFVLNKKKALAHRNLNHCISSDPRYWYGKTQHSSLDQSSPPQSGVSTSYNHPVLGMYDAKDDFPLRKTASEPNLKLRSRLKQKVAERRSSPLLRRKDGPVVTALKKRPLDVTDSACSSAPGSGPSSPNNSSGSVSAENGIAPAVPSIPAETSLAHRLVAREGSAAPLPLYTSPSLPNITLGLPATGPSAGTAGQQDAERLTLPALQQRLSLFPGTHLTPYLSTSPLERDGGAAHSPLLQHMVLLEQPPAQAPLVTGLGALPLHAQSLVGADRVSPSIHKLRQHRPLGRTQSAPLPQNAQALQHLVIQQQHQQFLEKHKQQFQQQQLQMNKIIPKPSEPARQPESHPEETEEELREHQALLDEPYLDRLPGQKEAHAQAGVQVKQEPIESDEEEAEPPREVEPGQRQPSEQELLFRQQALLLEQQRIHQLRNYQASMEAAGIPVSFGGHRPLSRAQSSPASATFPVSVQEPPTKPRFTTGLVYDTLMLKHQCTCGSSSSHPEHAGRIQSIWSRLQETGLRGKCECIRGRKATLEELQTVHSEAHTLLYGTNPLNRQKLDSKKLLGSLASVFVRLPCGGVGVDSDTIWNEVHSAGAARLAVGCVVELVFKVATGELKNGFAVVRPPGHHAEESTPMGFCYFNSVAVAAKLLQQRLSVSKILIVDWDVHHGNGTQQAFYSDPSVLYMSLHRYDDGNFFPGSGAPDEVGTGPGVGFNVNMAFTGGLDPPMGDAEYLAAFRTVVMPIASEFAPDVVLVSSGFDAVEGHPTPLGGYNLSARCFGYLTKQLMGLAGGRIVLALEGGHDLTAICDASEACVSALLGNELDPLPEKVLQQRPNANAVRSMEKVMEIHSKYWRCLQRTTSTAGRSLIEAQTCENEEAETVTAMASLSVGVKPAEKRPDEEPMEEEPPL
Chain of Histone deacetylase 3 (O15379 whole entry): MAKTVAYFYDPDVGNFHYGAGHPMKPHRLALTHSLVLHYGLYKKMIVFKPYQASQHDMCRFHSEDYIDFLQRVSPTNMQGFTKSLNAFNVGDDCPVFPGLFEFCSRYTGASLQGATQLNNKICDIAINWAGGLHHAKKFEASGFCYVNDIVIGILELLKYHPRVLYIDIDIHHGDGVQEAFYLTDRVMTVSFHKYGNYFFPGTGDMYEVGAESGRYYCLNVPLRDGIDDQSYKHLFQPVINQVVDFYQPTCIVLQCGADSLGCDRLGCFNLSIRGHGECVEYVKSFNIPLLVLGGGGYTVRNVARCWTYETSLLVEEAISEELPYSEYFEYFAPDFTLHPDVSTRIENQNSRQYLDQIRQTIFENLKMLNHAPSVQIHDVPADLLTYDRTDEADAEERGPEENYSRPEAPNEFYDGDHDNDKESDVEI

| Compound | GI50 (cells [1]) [µM] | GI50 (MCF7) [µM] | IC50 (Histone deacetylase 1 [2]) [µM] | IC50 (Histone deacetylase) [µM] | IC50 [3] [µM] | GI50 (cells [4]) [µM] | GI50 (cells [5]) [µM] | GI50 (HT-29) [µM] | GI50 (MDA-MB-231) [µM] | GI50 at 96 h [6] [µM] | GI50 (A549) [µM] | IC50 (Histone deacetylase 4) [µM] | IC50 (Histone deacetylase 11) [µM] | IC50 (Histone deacetylase 2) [µM] | IC50 (Histone deacetylase 3) [µM] | IC50 (Histone deacetylase 8) [µM] | inhibition [7] | inhibition (Histone deacetylase 1 [8]) |
| --- | --- | --- | --- | --- | --- | --- | --- | --- | --- | --- | --- | --- | --- | --- | --- | --- | --- | --- |
| O=C(NCCCCCCS)c1cc(C2CCCCC2)n[nH]1 | > 50 | > 50 | 0.331 | 0.364 | 0.241 |  |  |  |  |  |  |  |  |  |  |  |  |  |
| CSCCCCCCNC(=O)c1cc(-c2ccncc2)n[nH]1 | > 50 | > 50 |  |  |  | > 50 | > 50 | > 50 | > 50 | > 50 | > 50 |  |  |  |  |  |  |  |
| O=C(NCCCCCCS)c1cc(-c2cnccn2)n[nH]1 | > 50 | > 50 | 0.015 | 0.018 | 0.022 |  |  |  |  |  |  | > 10 | > 10 | 0.068 | 0.023 | > 10 |  |  |
| COc1ccc(-c2cc(C(=O)NCCCCCCS)[nH]n2)cc1OC | > 50 | 30.8 | 0.31 | 0.056 | 0.056 |  |  |  |  |  |  |  |  |  |  |  |  |  |
| O=C(CCCCCCS)Nc1ccccc1 | > 50 | > 50 |  |  |  |  |  |  |  |  |  |  |  |  |  |  |  |  |
| CC(C)C(=O)SCCCCCCNC(=O)c1cc(-c2ccncc2)n[nH]1 | 22.7 | 15.2 |  |  |  | 31.7 | 22.4 | 25.7 | > 50 | > 50 | 16.8 |  |  |  |  |  |  |  |
| O=C(NCCCCCCS)c1cc(-c2cccc3ccccc23)n[nH]1 | > 50 | > 50 | 0.429 | 0.608 | 0.244 |  |  |  |  |  |  |  |  |  |  |  |  |  |
| Cc1cc(C(=O)NCCCCCCS)[nH]n1 | > 50 | > 50 |  | 0.715 |  |  |  |  |  |  |  |  |  |  |  |  |  |  |
| C=CCOC(=O)SCCCCCCNC(=O)c1cc(-c2ccncc2)n[nH]1 | 32.9 | 12.6 |  |  |  | 27.5 | 24.8 | 11.9 | 36 | 27.5 | 15.2 |  |  |  |  |  |  |  |
| O=C(NCCCCCCS)c1cc(-c2ccccc2)n[nH]1 | > 50 | > 50 | 0.098 | 0.023 | 0.03 |  |  |  |  |  |  |  |  |  |  |  |  |  |
| O=C(NCCCCCCS)c1cc(-c2ccc(F)cc2)n[nH]1 | > 50 | > 50 |  | 0.245 |  |  |  |  |  |  |  |  |  |  |  |  |  |  |
| O=C(NCCCCCCS)c1cc(-c2ccncc2)n[nH]1 | 25.3 | 12.2 | 0.012 | 0.008 | 0.018 | 36.9 | 11 | 10.2 | > 50 | 17.5 | 14.4 | > 10 | > 10 | 0.072 | 0.011 | > 10 | Dose-dependent effect | Dose-dependent effect |
| O=C(NCCCCCCS)c1ccn[nH]1 | > 50 | > 50 | 0.526 | 0.081 | 0.092 |  |  |  |  |  |  |  |  |  |  |  |  |  |
| O=C(NCCCCCCS)c1cc(-c2ccc3ccccc3c2)n[nH]1 | > 50 | > 50 | 0.133 | 0.102 | 0.235 |  |  |  |  |  |  |  |  |  |  |  |  |  |
| COc1ccc(-c2cc(C(=O)NCCCCCCS)[nH]n2)cc1 | > 50 | 14.8 |  | 0.15 | 0.167 |  |  |  |  |  |  |  |  |  |  |  |  |  |
| COc1cc(-c2cc(C(=O)NCCCCCCS)[nH]n2)cc(OC)c1OC | > 50 | > 50 | 0.422 | 0.102 | 0.084 |  |  |  |  |  |  |  |  |  |  |  |  |  |
| O=C(NCCCCCCS)c1cc(-c2ccc(-c3ccccc3)cc2)n[nH]1 | > 50 | > 50 | 0.225 | 0.043 | 0.106 |  |  |  |  |  |  |  |  |  |  |  |  |  |
| CCCC(=O)SCCCCCCNC(=O)c1cc(-c2ccncc2)n[nH]1 | 23.5 | 12.1 |  |  |  | 28.1 | 32.1 | 12.4 | > 50 | > 50 | 15.1 |  |  |  |  |  |  |  |
| O=C(NCCCCCCS)c1cc(-c2c[nH]c3ccccc23)n[nH]1 | > 50 | 18.2 | 0.15 | 0.07 | 0.033 |  |  |  |  |  |  |  |  |  |  |  |  |  |
| CCC(=O)SCCCCCCNC(=O)c1cc(-c2ccncc2)n[nH]1 | > 50 | > 50 |  |  |  | > 50 | > 50 | > 50 | > 50 | > 50 | > 50 |  |  |  |  |  |  |  |
| O=C(OCc1ccccc1)SCCCCCCNC(=O)c1cc(-c2ccncc2)n[nH]1 | 18.2 | 8.37 |  |  |  | 32.3 | 15.4 | 22 | 24.7 | 19.7 | 13.4 |  |  |  |  |  |  |  |
| CCCCCCCC/C=C\CCCCCCCC(=O)SCCCCCCNC(=O)c1cc(-c2ccncc2)n[nH]1 | 39.3 | 31.1 |  |  |  | > 50 | > 50 | 23.5 | > 50 | > 50 | 33.3 |  |  |  |  |  |  |  |
| O=C(NCCCCCCS)c1cc(-c2ccccn2)n[nH]1 | > 50 | 26.8 | 0.124 | 0.033 | 0.027 |  |  |  |  |  |  |  |  |  |  |  |  |  |
| CC(=O)SCCCCCCNC(=O)c1cc(-c2ccncc2)n[nH]1 | 41.1 | 24.9 |  |  |  | > 50 | 36 | 23.1 | > 50 | > 50 | 18 |  |  |  |  |  |  |  |
